Test results taken from publication PMC3502511, “Inhibition of the Prokaryotic Pentameric Ligand-Gated Ion Channel ELIC by Divalent Cations” (PLoS Biology, 2012).

Key:
Type in all cases: cell-based, Erwinia chrysanthemi
ELIC R91A = target: T1, ELIC R91A (Dickeya chrysanthemi, UniProt P0C7B7, INS163G/R91A); assay: Two-electrode voltage clamp, ELIC R91A in oocytes
T1 construct: expressed in transfected cells; host or cells: X. laevis oocytes
Experimental: (§1) Constructs containing the gene of either the WT or mutant channels preceded by the signal sequence of the chicken α7nAchR were cloned into the pTLN vector for expression in X. laevis oocytes. After linearization of the plasmid DNA by MluI, capped complementary RNA was transcribed with the mMessage mMachine kit (Ambion) and purified with the RNeasy kit (Qiagen). For expression, 1–50 ng of RNA was injected into defolliculated oocytes. Two-electrode voltage clamp measurements were performed 1 d after injection at 20°C (OC-725B, Warner Instrument Corp.). Currents were recorded in bath solutions containing 10 mM HEPES (pH 7), 130 mM NaCl, and the indicated concentrations of cysteamine and divalent cations. In case of solutions containing Zn^2+, cysteamine was replaced by propylamine. The membrane potential in all dose–response measurements was set to −40 mV. As ELIC is permeable to divalent cations, we tested if endogenous calcium-activated chloride channels affected our measurements. To chelate intracellular calcium ions, the oocytes were incubated for 15 to 30 min in bath solutions lacking divalent ions but containing 10 µM BAPTA-AM.

ELIC WT = target: T2, ELIC WT (Dickeya chrysanthemi, UniProt P0C7B7, INS163G); assay: cell-based; details: Ki app, Schild analysis
T2 construct: expressed in transfected cells; host or cells: X. laevis oocytes (cRNA injection, pTLN vector)
Experimental: as §1

ELIC D113A/D158A = target: T3, ELIC D113A/D158A (Dickeya chrysanthemi, UniProt P0C7B7, D113A/D158A/INS163G); assay: cell-based
T3 construct: expressed in transfected cells; host or cells: X. laevis oocytes
Experimental: as §1

CC(=O)OCC[N+](C)(C)C [ACh, acetylcholine]
Ki (ELIC R91A): 170 µM | Ki (ELIC WT; WT/1 mM Ca^2+): 2200 µM | Ki (ELIC WT; WT/.25 mM Ca^2+): 1200 µM | Ki (ELIC WT; WT/.5 mM Ca^2+): 1300 µM | Ki (ELIC WT; WT, agonist cysteamine): 1600 µM | Ki (ELIC D113A/D158A): 2100 µM
